{"source": "patent US10939684B2", "about": "“Preparation of sulfonamide-containing antimicrobials and substrate treating compositions of sulfonamide-containing antimicrobials” (NANO SAFE COATINGS INCORPORATED, priority 2015, dated 2021)", "format_in_all_cases": "cell-based", "key": {"[1]": {"tested_on": "Arthrobacter spp. planktonic cells", "assay": "Static biofilm test in coated polyethylene test tubes, planktonic cell survival", "details": "48 hours; for Average / A (cfu) / B (cfu) / C (cfu): planktonic cells; for Average: average of A-C; for A (cfu): replicate A; for B (cfu): replicate B; for C (cfu): replicate C; for activity against planktonic cells (in words): initial test and re-challenge (FIG. 9)", "description": "(§1) The interior of polyethylene test tubes was coated with the sulfonamide QUAT antimicrobial similarly as in Example 32. Tubes were filled with 2.7 mL of growth media (3 g/L TSB) into which 300 μL of Arthrobacter spp. bacterial culture was inoculated. Planktonic cells were sampled after 48 hours of incubation and agitation by removing 100 μL aliquots from each tube. After 48 hours, the liquid in each tube was removed completely so that biofilm attachment to the interior of the tubes could be assessed. To test for biofilm attachment the tubes were first gently rinsed in a saline solution to remove any loosely attached or residual planktonic cells. Next, 1 mL of saline solution was added to each tube before the tubes were vortexed vigorously for 1 minute to transfer biofilm cells to the collection liquid. Plate counts were then performed on serial dilutions of this collection liquid. Planktonic and biofilm colony counts from triplicate coated tubes were averaged and compared to colony counts from tests of uncoated control tubes carried out in parallel. After 14 days of exposure to ambient air, the tubes used in the above test were subjected to a second static biofilm test as described above, without reapplying the antimicrobial. This test was performed to determine whether the antimicrobial effects of the coating persisted following repeated exposures."}, "[2]": {"tested_on": "Arthrobacter spp.", "assay": "Large-droplet inoculation method, antimicrobial efficacy at solid-air interfaces", "details": "treated polystyrene; for Average / A (cfu) / B (cfu) / C (cfu): load 1.28E+08; for Average: average of A-C; for A (cfu): replicate A; for B (cfu): replicate B; for C (cfu): replicate C", "excerpt": "(§2) Large-droplet inoculation method (Ronan E. et al, Biofouling 2013, 29, 1087-1096) Many pathogens are able to remain viable during extended periods of desiccation on inanimate surfaces. Long-term survival of pathogens in the inanimate environment pose a significant risk for infection transmission and contamination in high-risk environments such as hospital rooms or food-processing plants. The large-droplet inoculation method was developed to simulate the deposition of bacterial species onto exposed surfaces and to determine the ability of these cells to survive desiccation.\n(§3) For these tests, small surface coupons were first coated with the antimicrobial using the method described above. Bacterial test species were grown overnight in a shaking incubator and cultures\n(§4) were washed twice to replace the growth media with sterile water. 100 μL aliquots of the prepared culture were then inoculated onto multiple coated surfaces and allowed to air-dry within a biological safety cabinet. Drying typically occurred 2-3 hours after inoculation, and surviving cells were enumerated immediately and 24 hours after drying. For enumeration, inoculated coupons were sacrificed in triplicate and placed inside separate tubes containing 5 mL of a 0.9% saline collection liquid. Each coupon was agitated vigorously for 1 minute with a bench-top vortex to transfer cells from the test surface to the collection liquid. Plate counts were then performed on serial dilutions of the collection liquid, and colony counts from triplicate treated surfaces were averaged and compared to colony counts from tests of untreated control surfaces carried out in parallel.\n(§5) A range of bacterial species were used in these tests. Arthrobacter spp., a gram-positive lab strain originally isolated from indoor air was used in the bulk of the testing, as it is known to be highly resistant to desiccation and therefore was used as a model for desiccation-tolerant pathogens. Efficacy tests were also carried out against, for example, gram-negative Escherichia coli (E. coli) and gram-positive Staphylococcus aureus (S. aureus), since they all contain pathogenic strains and have been implicated in major nosocomial outbreaks. […] The following are the tabulated bacterial reduction data: […]"}, "[3]": {"tested_on": "Staphylococcus aureus (S. aureus)", "assay": "Large-droplet inoculation method, antimicrobial efficacy at solid-air interfaces", "details": "for Average / A (cfu) / B (cfu) / C (cfu): S. aureus, treated polyethylene, load 8.30E+05; for Average: average of A-C; for A (cfu): replicate A; for B (cfu): replicate B; for C (cfu): replicate C; for activity against S. aureus (in words): treated polyethylene coupons, compared to untreated control (FIG. 6)", "excerpt": "as §2, §3, §4, §5"}, "[4]": {"tested_on": "Escherichia coli (E. coli)", "assay": "Large-droplet inoculation method, antimicrobial efficacy at solid-air interfaces", "details": "for Average / A (cfu) / B (cfu) / C (cfu): E. coli, treated polyethylene, load 5.05E+07; for Average: average of A-C; for A (cfu): replicate A; for B (cfu): replicate B; for C (cfu): replicate C; for activity against E. coli (in words): treated polyethylene coupons, compared to untreated control (FIG. 6)", "excerpt": "as §2, §3, §4, §5"}, "[5]": {"tested_on": "Arthrobacter spp. biofilm cells", "assay": "Static biofilm test in coated polyethylene test tubes, biofilm cell survival", "details": "for Average / A (cfu) / B (cfu) / C (cfu): biofilm cells, 48 hours; for Average: average of A-C; for A (cfu): replicate A; for B (cfu): replicate B; for C (cfu): replicate C", "description": "as §1"}, "[6]": {"details": "initial test, treated polyethylene test tubes, load 7.75E+08"}, "[7]": {"details": "rechallenge after 14 days without reapplying, load 8.00E+08"}, "[8]": {"details": "listed as 3-(4-benzoylphenoxy)-N,N-dimethyl-N-(3-(2,4,6-trimethylphenyl sulfonamido)propyl)"}, "[9]": {"details": "listed as 3-(4-benzoylphenoxy)-N,N-dimethyl-N-(3-(2,4,6-trimethylphenylsulfonamido)propyl)"}}, "note": "“Also recorded” adds a separate entry of the source."}
{"smiles": "Cc1cc(C)c(S(=O)(=O)NCCC[N+](C)(C)CCCOc2ccc(C(=O)c3ccccc3)cc2)c(C)c1.[Br-]", "note": "[Example 3c, 3-(4-benzoylphenoxy)-N,N-dimethyl-N-(3-(2,4,6-trimethylphenylsulfonamido)propyl)propan-1-aminium bromide]", "values": [{"measurement": "Average", "setting": "[1]; [6]", "value": "0.00E+00", "unit": "cfu"}, {"measurement": "A (cfu)", "setting": "[1]; [6]", "value": "0.00E+00", "unit": "cfu"}, {"measurement": "B (cfu)", "setting": "[1]; [6]", "value": "0.00E+00", "unit": "cfu"}, {"measurement": "C (cfu)", "setting": "[1]; [6]", "value": "0.00E+00", "unit": "cfu"}, {"measurement": "Average", "setting": "[1]; [7]", "value": "0.00E+00", "unit": "cfu"}, {"measurement": "A (cfu)", "setting": "[1]; [7]", "value": "0.00E+00", "unit": "cfu"}, {"measurement": "B (cfu)", "setting": "[1]; [7]", "value": "0.00E+00", "unit": "cfu"}, {"measurement": "C (cfu)", "setting": "[1]; [7]", "value": "0.00E+00", "unit": "cfu"}, {"measurement": "activity against planktonic cells (in words)", "setting": "[1]; treated polyethylene test tubes, listed as 3-(4-benzoylphenoxy)-N,N-dimethyl-N-(3-(2,4,6-trimethylphenyl sulfonamido)propyl)", "value": "excellent activity"}, {"measurement": "activity against planktonic cells (in words)", "setting": "[1]; treated polyethylene test tubes, listed as 3-(4-benzoylphenoxy)-N,N-dimethyl-N-(3-(2,4,6-trimethylphenylsulfonamido)propyl)", "value": "complete eradication"}, {"measurement": "activity against Arthrobacter spp. (in words)", "setting": "[2]; compared to untreated control (FIG. 3)", "value": "eradicated within three hours; also recorded: excellent activity"}, {"measurement": "Average", "setting": "[2]; 3 hours", "value": "0.00E+00", "unit": "cfu"}, {"measurement": "A (cfu)", "setting": "[2]; 3 hours", "value": "0.00E+00", "unit": "cfu"}, {"measurement": "B (cfu)", "setting": "[2]; 3 hours", "value": "0.00E+00", "unit": "cfu"}, {"measurement": "C (cfu)", "setting": "[2]; 3 hours", "value": "0.00E+00", "unit": "cfu"}, {"measurement": "Average", "setting": "[2]; 24 hours", "value": "0.00E+00", "unit": "cfu"}, {"measurement": "A (cfu)", "setting": "[2]; 24 hours", "value": "0.00E+00", "unit": "cfu"}, {"measurement": "B (cfu)", "setting": "[2]; 24 hours", "value": "0.00E+00", "unit": "cfu"}, {"measurement": "C (cfu)", "setting": "[2]; 24 hours", "value": "0.00E+00", "unit": "cfu"}, {"measurement": "Average", "setting": "[3]; 3 hours", "value": "0.00E+00", "unit": "cfu"}, {"measurement": "A (cfu)", "setting": "[3]; 3 hours", "value": "0.00E+00", "unit": "cfu"}, {"measurement": "B (cfu)", "setting": "[3]; 3 hours", "value": "0.00E+00", "unit": "cfu"}, {"measurement": "C (cfu)", "setting": "[3]; 3 hours", "value": "0.00E+00", "unit": "cfu"}, {"measurement": "Average", "setting": "[3]; 24 hours", "value": "0.00E+00", "unit": "cfu"}, {"measurement": "A (cfu)", "setting": "[3]; 24 hours", "value": "0.00E+00", "unit": "cfu"}, {"measurement": "B (cfu)", "setting": "[3]; 24 hours", "value": "0.00E+00", "unit": "cfu"}, {"measurement": "C (cfu)", "setting": "[3]; 24 hours", "value": "0.00E+00", "unit": "cfu"}, {"measurement": "activity against S. aureus (in words)", "setting": "[3]; [8]", "value": "excellent activity"}, {"measurement": "activity against S. aureus (in words)", "setting": "[3]; [9]", "value": "eradicated within three hours"}, {"measurement": "Average", "setting": "[4]; 3 hours", "value": "0.00E+00", "unit": "cfu"}, {"measurement": "A (cfu)", "setting": "[4]; 3 hours", "value": "0.00E+00", "unit": "cfu"}, {"measurement": "B (cfu)", "setting": "[4]; 3 hours", "value": "0.00E+00", "unit": "cfu"}, {"measurement": "C (cfu)", "setting": "[4]; 3 hours", "value": "0.00E+00", "unit": "cfu"}, {"measurement": "Average", "setting": "[4]; 24 hours", "value": "0.00E+00", "unit": "cfu"}, {"measurement": "A (cfu)", "setting": "[4]; 24 hours", "value": "0.00E+00", "unit": "cfu"}, {"measurement": "B (cfu)", "setting": "[4]; 24 hours", "value": "0.00E+00", "unit": "cfu"}, {"measurement": "C (cfu)", "setting": "[4]; 24 hours", "value": "0.00E+00", "unit": "cfu"}, {"measurement": "activity against E. coli (in words)", "setting": "[4]; [8]", "value": "excellent activity"}, {"measurement": "activity against E. coli (in words)", "setting": "[4]; [9]", "value": "eradicated within three hours"}, {"measurement": "Average", "setting": "[5]; [6]", "value": "0.00E+00", "unit": "cfu"}, {"measurement": "A (cfu)", "setting": "[5]; [6]", "value": "0.00E+00", "unit": "cfu"}, {"measurement": "B (cfu)", "setting": "[5]; [6]", "value": "0.00E+00", "unit": "cfu"}, {"measurement": "C (cfu)", "setting": "[5]; [6]", "value": "0.00E+00", "unit": "cfu"}, {"measurement": "Average", "setting": "[5]; [7]", "value": "0.00E+00", "unit": "cfu"}, {"measurement": "A (cfu)", "setting": "[5]; [7]", "value": "0.00E+00", "unit": "cfu"}, {"measurement": "B (cfu)", "setting": "[5]; [7]", "value": "0.00E+00", "unit": "cfu"}, {"measurement": "C (cfu)", "setting": "[5]; [7]", "value": "0.00E+00", "unit": "cfu"}, {"measurement": "activity against biofilm cells / biofilm development (in words)", "setting": "[5]; treated polyethylene test tubes, 48 hours (FIG. 10)", "value": "excellent activity"}]}
